Assay [1] concerns the target T1, ATM kinase (Homo sapiens, UniProt Q13315).
T1 construct: purchased Eurofins 14-933
Nature of the assay: In vitro ATM kinase assay (Cisbio HTRF, p53 substrate). It is filed as biochemical. To be noted: 30 μM ATP; for inhibition at 0.0001 µM: Conc. 0.1 nM; for inhibition at 0.0001 µM / inhibition at 0.001 µM / inhibition at 0.01 µM: read-out: Inh % (inhibitory effect on ATM kinase activity); for inhibition at 0.001 µM: Conc. 1 nM; for inhibition at 0.01 µM: Conc. 10 nM. How it is done: Determination of the Inhibitory Effect In Vitro of the Compound of Example 2 and its Analogues on ATM Using In Vitro ATM Kinase Assay
ATM enzymatic activity was measured using Cisbio's HTRF reagent in a 384-well plate (Greiner, #784075). […] The mixtures were centrifuged at 1000 rpm for 1 minute, and reacted in dark for 30 minutes at room temperature. Then, 5 μL of EDTA termination solution (250 mm) was added to terminate the reaction. After 5 μL of detection mixture (Anti-phospho-p53 (ser15)-K (Cisbio, #61P08KAE, 0.084 ng/μL) and Anti-GST-d2 (Cisbio, #61GSTDLA, 5.00 ng/μL)) was finally added to each well, the mixtures were cultured at room temperature over night, and the fluorescence values at 665 nm and 615 nm were measured on Envision 2104. The final concentration of each reagent of the experiment was as follows: 12.5 mM HEPES (pH8.0), 0.5% glycerol, 0.005% Brij-35, 0.625 mM DTT, 0.0125% BSA, 15 nM p53, 0.25 ng/μL ATM, 30 μM ATP, 2.5 mM Mg(AcO)2, 2.5 mM MnCl2, 62.5 mM EDTA, 0.021 ng/μL Anti-phospho-p53, 1.25 ng/μL Anti-GST-d2.
Relative fluorescence ratio was calculated: Ratio665 nm/615 nm−Ratiobackground, and inhibition rate %=(1−(relative fluorescence ratio of test compound well−relative fluorescence ratio of positive control well)/(relative fluorescence ratio of negative control well−relative fluorescence ratio of positive control well))×100 was calculated. Data were analyzed using GraphPad Prism6.0 and fitted using the curve equation: Y=Bottom+(Top−Bottom)/(1+10^((Log IC50−X)*HillSlope)), and IC50 values were calculated.
For orientation: TR-FRET usually uses a lanthanide donor and a delayed reading to cut background.

The test system of assay [2] is human colon cancer cell SW620. Nature of the assay: MTT proliferation assay in combination with CPT-11, SW620. The assay is classed as cell-based. To be noted: medium containing 205 nM CPT-11, 5 days, read-out: IC50, inhibition of proliferation of SW620 combined with CPT-11. How it is done: Determination of the Inhibitory Effect of the Compound of Example 2 and its Analogues in Combination with CPT-11 on the Proliferation of Human Colon Cancer Cell SW620 Using MTT Assay
The human colon cancer cells SW620 were cultured in RPMI 1640 medium with 10% FBS and used at about 90% confluence for experiments. The SW620 cells were digested with trypsinase and centrifuged at 800 rpm for 5 minutes. The supernatant was discarded and the cell pellets were resuspended with fresh medium (RPMI 1640+10% FBS). The cells were seeded into 96-well cell culture plates with appropriate cell density and incubated at 37° C. overnight in a 5% CO2 incubator. […] The first concentration was 1 μM or 0.333 μM, the last concentration was DMSO negative control (0 μM). 5 μL of solutions of each concentration was added to 120 μL of medium (a 25 times dilution) and mixed by shaking. The cells were cultured overnight and the culture medium was replaced with 195 μL/well of fresh medium containing 205 nM CPT-11 and 5 μL/well of medium containing the test compound (the final concentration of DMSO was 1%). The culture plates were returned to incubator and cultured at 37° C., 5% CO2 for 5 days. At the day of experiment, medium was discarded and replaced with 100 μL of fresh serum-free DMEM medium containing MTT (0.5 mg/mL), and the culture was continued. 4 hours later, the medium was discarded and replaced with 100 μL/well of DMSO, the plate was shaken for 10 minutes in dark and the absorbance was measured at the wavelengths of 552 and 690 nm using a multi-function plate reader. Data were analyzed by Graph Pad Prism 6.0. The inhibitory effects of compounds on cell proliferation were plotted based on cell viability vs. the logarithm of compound concentration. Cell viability %=(ODcompound−ODbackground)/(ODDMSO−ODbackground)×100.
Table 3 summarizes the inhibitory effect data (IC50) of some compounds combined with CPT-11 on the proliferation of human colon cancer cell SW620.
(In general: Formazan colour is commonly taken as a measure of viable cells.)

In assay [3] the test system is human breast cancer cell MDA-MB-468. Briefly: MTT proliferation assay, MDA-MB-468. To be noted: Homo sapiens, MDA-MB-468, 168 h, 7 days, single agent, read-out: IC50, inhibition of proliferation of MDA-MB-468. It is filed as cell-based. How it is done:
Determination of the Inhibitory Effect of the Compound of Example 2 and its Analogues on the Proliferation of Human Breast Cancer Cell MDA-MB-468 Using MTT Assay
The human breast cancer cells MDA-MB-468 were cultured in RPMI 1640 medium with 10% FBS and used at 90% confluence. The MDA-IVB-468 cells were digested with trypsinase and centrifuged at 800 rpm for 5 minutes. The supernatant was discarded and the cell pellets were resuspended with fresh medium and counted. Cells were seeded to 96-well cell culture plates with appropriate cell density and incubated overnight at 37° C., 5% CO2. […] 5 μL of solutions of each concentration was added to 120 μL of medium (diluted by 25 times) and mixed by shaking. The culture medium of cells cultured overnight was discarded and replaced with 195 μL/well of fresh medium (RPMI 1640+5% FBS) and 5 μL/well of diluted medium containing the test compound of corresponding concentrations (the final concentration of DMSO was 1%), and the culture plate was then returned to 5% CO2 incubator at 37° C. for 7 days (on the fourth day, dressing was changed once and culture was continued). On the day of experiment, culture medium was discarded and replaced with 100 μL/well of fresh serum-free DMEM medium containing MTT (0.5 mg/mL), and the culture was continued. After 4 hours, medium was discarded and replaced with 100 μL/well of DMSO, the plates were shaken for 10 minutes in darkness and the absorbance was measured at the wavelengths of 552 and 693 nm using a multi-function plate reader. Graph Pad Prism 6.0 was used to analyze the data. The inhibitory effects of compounds on cell proliferation were plotted based on cell viability vs. the logarithm of compound concentration. Cell viability %=(ODcompound−ODbackground)/(ODDMSO−ODbackground)×100.
Table 4 summarizes the inhibitory effect data (IC50) of some compounds on the proliferation of human breast cancer cell MDA-MB-468.

SMILES strings stand for the structures. pIC50: −log10 of the molar value. Read-outs that look alike come from different tables or passages of the source.

T1 sequence (Q13315 whole entry): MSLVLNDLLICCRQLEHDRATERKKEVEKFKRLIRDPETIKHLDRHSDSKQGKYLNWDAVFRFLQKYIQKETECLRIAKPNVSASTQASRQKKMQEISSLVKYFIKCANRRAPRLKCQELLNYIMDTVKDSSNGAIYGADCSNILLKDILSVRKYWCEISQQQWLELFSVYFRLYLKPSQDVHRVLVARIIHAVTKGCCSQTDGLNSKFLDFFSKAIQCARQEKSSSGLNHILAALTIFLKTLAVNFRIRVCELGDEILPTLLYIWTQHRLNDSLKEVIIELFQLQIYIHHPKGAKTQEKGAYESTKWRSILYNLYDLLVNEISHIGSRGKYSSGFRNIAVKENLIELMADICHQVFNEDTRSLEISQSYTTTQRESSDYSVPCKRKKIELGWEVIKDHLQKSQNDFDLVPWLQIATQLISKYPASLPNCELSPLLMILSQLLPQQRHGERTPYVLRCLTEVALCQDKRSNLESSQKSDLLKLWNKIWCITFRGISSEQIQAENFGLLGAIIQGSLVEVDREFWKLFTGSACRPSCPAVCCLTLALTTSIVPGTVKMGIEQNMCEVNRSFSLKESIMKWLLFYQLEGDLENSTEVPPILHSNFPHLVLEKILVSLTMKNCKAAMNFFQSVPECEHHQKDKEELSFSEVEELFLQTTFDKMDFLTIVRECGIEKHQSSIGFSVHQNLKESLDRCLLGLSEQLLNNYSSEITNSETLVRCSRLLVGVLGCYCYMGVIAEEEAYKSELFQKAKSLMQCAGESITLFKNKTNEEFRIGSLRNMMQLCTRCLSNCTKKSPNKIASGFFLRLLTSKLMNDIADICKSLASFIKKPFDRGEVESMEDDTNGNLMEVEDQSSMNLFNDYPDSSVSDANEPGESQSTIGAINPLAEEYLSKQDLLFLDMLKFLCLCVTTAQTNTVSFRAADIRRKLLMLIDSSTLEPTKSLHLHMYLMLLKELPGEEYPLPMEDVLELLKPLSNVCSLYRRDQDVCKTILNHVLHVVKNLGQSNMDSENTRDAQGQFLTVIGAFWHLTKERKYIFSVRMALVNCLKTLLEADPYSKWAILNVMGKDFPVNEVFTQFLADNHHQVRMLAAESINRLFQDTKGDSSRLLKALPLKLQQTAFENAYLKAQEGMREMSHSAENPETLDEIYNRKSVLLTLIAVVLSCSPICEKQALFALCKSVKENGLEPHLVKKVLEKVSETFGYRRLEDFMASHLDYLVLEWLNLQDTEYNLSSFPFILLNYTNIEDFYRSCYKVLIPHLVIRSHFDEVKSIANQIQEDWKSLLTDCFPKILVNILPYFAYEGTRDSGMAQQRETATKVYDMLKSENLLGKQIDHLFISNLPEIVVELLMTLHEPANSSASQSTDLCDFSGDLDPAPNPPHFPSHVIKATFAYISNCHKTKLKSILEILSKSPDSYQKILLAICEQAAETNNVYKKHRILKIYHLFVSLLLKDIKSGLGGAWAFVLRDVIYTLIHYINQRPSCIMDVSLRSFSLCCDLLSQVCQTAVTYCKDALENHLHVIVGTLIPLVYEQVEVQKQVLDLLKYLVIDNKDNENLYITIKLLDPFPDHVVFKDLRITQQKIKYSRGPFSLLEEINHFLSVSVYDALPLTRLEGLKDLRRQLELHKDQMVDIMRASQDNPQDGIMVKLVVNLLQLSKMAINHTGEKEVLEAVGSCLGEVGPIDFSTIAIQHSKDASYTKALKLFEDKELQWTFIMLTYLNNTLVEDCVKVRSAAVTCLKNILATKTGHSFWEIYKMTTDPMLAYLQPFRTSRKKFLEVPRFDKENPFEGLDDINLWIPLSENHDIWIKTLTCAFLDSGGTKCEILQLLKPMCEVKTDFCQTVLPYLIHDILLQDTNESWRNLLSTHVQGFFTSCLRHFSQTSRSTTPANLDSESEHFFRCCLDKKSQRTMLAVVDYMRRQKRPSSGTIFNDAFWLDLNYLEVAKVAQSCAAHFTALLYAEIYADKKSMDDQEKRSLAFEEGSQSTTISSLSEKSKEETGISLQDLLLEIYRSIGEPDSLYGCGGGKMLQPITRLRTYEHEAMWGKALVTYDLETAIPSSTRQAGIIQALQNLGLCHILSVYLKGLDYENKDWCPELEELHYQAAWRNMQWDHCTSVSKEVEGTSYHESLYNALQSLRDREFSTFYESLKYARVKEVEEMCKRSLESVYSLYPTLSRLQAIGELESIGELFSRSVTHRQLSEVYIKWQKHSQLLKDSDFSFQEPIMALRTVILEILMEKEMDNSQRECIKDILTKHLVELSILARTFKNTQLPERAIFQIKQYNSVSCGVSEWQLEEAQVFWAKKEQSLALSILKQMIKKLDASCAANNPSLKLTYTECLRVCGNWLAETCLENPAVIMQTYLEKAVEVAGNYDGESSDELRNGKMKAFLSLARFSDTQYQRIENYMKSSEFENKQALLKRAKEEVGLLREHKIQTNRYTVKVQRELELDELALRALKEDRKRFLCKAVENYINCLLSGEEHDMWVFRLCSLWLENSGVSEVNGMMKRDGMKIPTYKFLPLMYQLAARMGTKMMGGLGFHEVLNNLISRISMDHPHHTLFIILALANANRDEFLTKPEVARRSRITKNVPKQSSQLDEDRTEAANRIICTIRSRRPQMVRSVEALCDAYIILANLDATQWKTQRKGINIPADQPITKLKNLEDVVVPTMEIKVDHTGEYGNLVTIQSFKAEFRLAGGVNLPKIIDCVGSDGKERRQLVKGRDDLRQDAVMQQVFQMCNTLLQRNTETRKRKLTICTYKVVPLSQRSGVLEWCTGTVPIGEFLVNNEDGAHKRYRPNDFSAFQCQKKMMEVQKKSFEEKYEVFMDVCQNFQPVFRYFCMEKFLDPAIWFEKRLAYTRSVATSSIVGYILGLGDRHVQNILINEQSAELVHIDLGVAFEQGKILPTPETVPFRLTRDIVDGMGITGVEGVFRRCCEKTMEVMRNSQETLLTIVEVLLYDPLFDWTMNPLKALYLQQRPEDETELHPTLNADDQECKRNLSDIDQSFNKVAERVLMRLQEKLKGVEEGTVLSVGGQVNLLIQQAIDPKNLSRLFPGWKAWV

With `Cc1nc(N2C[C@@H](C)N(C)[C@@H](C)C2)n2c1cnc1ccc(-c3ccc(OCCCN(C)C)nc3)cc12` [Example 18, N,N-dimethyl-3-((5-(3-methyl-1-((3S,5R)-3,4,5-trimethylpiperazin-1-yl)imidazo[1,5-a]quinoxalin-8-yl)pyridin-2-yl)oxy)propan-1-amine], in assay [1], the inhibition at 0.0001 µM was 30%, the inhibition at 0.001 µM was determined as 87% and the inhibition at 0.01 µM came to 98%. Besides, in assay [2], the pIC50 was 8.19. The pIC50 in assay [3] was 8.19.

`Cc1nc(C(C)C)n2c1cnc1ccc(-c3ccc(OCCCN(C)C)nc3)cc12` [Example 19, N,N-dimethyl-3-((5-(1-isopropyl-3-methylimidazo[1,5-a]quinoxalin-8-yl)pyridin-2-yl)oxy)propan-1-amine]: the inhibition at 0.001 µM in assay [1] is 88%. In addition, the pIC50 is 7.75 in assay [2] and 7.94 in assay [3].

For `Cc1nc(C(C)C)n2c1cnc1ccc(-c3ccc(OCCCN(C)C)c(F)c3)cc12` [Example 20, N,N-dimethyl-3-(2-fluoro-4-(1-isopropyl-3-methylimidazo[1,5-a]quinoxalin-8-yl)phenoxy)propan-1-amine], in assay [1], the inhibition at 0.001 µM came out at 82%. The pIC50 in assay [2] was 7.44; in assay [3] it was 7.67.

Consider `Cc1nc(C(C)C)n2c1cnc1ccc(-c3ccc(OCCCN(C)C)c(C(F)(F)F)c3)cc12` [Example 21, N,N-dimethyl-3-(4-(1-isopropyl-3-methylimidazo[1,5-a]quinoxalin-8-yl)-2-(trifluoromethyl)phenoxy)propan-1-amine], for which the inhibition at 0.001 µM in assay [1] was 67%. The pIC50 was 7.53 in assay [2] and 7.78 in assay [3].

For `Cc1nc(C(C)C)n2c1cnc1ccc(-c3ccc(OCCCN4CCCCC4)nc3)cc12` [Example 22, 1-isopropyl-3-methyl-8-(6-(3-(piperidin-1-yl)propoxy)pyridin-3yl)imidazo[1,5-a]quinoxaline], in assay [1], the inhibition at 0.0001 µM was found to be 31%, the inhibition at 0.001 µM came out at 94% and the inhibition at 0.01 µM turned out to be 100%. The pIC50 in assay [2] is 7.79. Besides, the pIC50 in assay [3] was 8.00.

As for `Cc1nc(C(C)C)n2c1cnc1ccc(-c3ccc(N4CCC(N(C)C)CC4)c(F)c3)cc12` [Example 24, N,N-dimethyl-1-(2-fluoro-4-(1-isopropyl-3-methylimidazo[1,5-a]quinoxalin-8-yl)phenyl)piperidin-4-amine], in assay [1], the inhibition at 0.0001 µM was found to be 30%, the inhibition at 0.001 µM turned out to be 84% and the inhibition at 0.01 µM turned out to be 98%. Also, in assay [2], the pIC50 was 7.68. The pIC50 in assay [3] is 7.96.

Take `Cc1nc(C(C)C)n2c1cnc1ccc(-c3ccc(N4CCC(N(C)C)CC4)c(Cl)c3)cc12` [Example 25, N,N-dimethyl-1-(2-chloro-4-(1-isopropyl-3-methylimidazo[1,5-a]quinoxalin-8-yl)phenyl)piperidin-4-amine]: the inhibition at 0.001 µM in assay [1] is 69%. In addition, the pIC50 was 7.18 in assay [2] and 7.13 in assay [3].

For `Cc1nc(C(C)C)n2c1cnc1ccc(-c3ccc(N4CCC(N(C)C)CC4)c(C(F)(F)F)c3)cc12` [Example 26, N,N-dimethyl-1-(4-(1-isopropyl-3-methylimidazo[1,5-a]quinoxalin-8-yl)-2-(trifluoromethyl)phenyl)piperidin-4-amine], in assay [1], the inhibition at 0.001 µM was 54%. Further, the pIC50 in assay [2] was 7.29; in assay [3], 7.31.

Take `Cc1nc(N2C[C@@H](C)O[C@@H](C)C2)n2c1cnc1ccc(-c3ccc(OCCCN4CCC4)nc3)cc12` [Example 31, (2S,6R)-4-(8-(6-(3-(azetidin-1-yl)propoxy)pyridin-3-yl)-3-methylimidazo[1,5-a]quinoxalin-1-yl)-2,6-dimethylmorpholine]: the pIC50 is 9.21 in assay [1]; 8.00 in assay [2] (Homo sapiens, SW-620, 120 h); 8.04 in assay [3].

Consider `Cc1nc(N2C[C@@H](C)O[C@@H](C)C2)n2c1cnc1ccc(-c3ccc(OCCCN4CCCC4)nc3)cc12` [Example 32, (2S,6R)-2,6-dimethyl-4-(3-methyl-8-(6-(3-(pyrrolidin-1-yl)propoxy)pyridin-3-yl)imidazo[1,5-a]quinoxalin-1-yl)morpholine], for which the pIC50 is 10.00 in assay [1]; 8.04 in assay [2] (Homo sapiens, SW-620, 120 h); 8.12 in assay [3].

As to `Cc1nc(N2C[C@@H](C)O[C@@H](C)C2)n2c1cnc1ccc(-c3ccc(OCCCN4CCCCC4)nc3)cc12` [Example 33, (2S,6R)-2,6-dimethyl-4-(3-methyl-8-(6-(3-(piperidin-1-yl)propoxy)pyridin-3-yl)imidazo[1,5-a]quinoxalin-1-yl)morpholine], in assay [1], the pIC50 is 9.70, the inhibition at 0.0001 µM was determined as 28%, the inhibition at 0.001 µM stood at 92% and the inhibition at 0.01 µM is 100%. Also, the pIC50 in assay [2] (Homo sapiens, SW-620, 120 h) is 7.74. Further, the pIC50 in assay [3] is 7.73.

Regarding `Cc1nc(N2C[C@@H](C)O[C@@H](C)C2)n2c1cnc1ccc(-c3ccc(OCCN(C)C)nc3)cc12` [Example 36, 2-((5-(1-((2S,6R)-2,6-dimethylmorpholino)-3-methylimidazo[1,5-a]quinoxalin-8-yl)pyridin-2-yl)oxy)-N,N-dimethylethan-1-amine], in assay [1], the inhibition at 0.001 µM worked out at 40%. Also, the figures for the pIC50 in assay [2] and in assay [3] were 7.14 and 7.23, respectively.

As to `Cc1nc(N2C[C@@H](C)O[C@@H](C)C2)n2c1cnc1ccc(-c3ccc(OCCCN(C)C)c(C(F)(F)F)c3)cc12` [Example 37], in assay [1], the inhibition at 0.0001 µM came out at 12%, the inhibition at 0.001 µM turned out to be 66% and the inhibition at 0.01 µM was found to be 100%. Moreover, the pIC50 in assay [2] is 7.75. Also, in assay [3], the pIC50 was 7.60.
